The values that follow come from PubChem BioAssay AID200 (DTP/NCI, 2004).

The subject of the experiment is B6C3F1 mice, B16 melanoma ip, median survival T/C. The experiment in a line: NCI In Vivo Anticancer Drug Screen. Data for tumor model B16 Melanoma (intraperitoneal) in B6C3F1 mice. As to conditions: endpoint: median survival time, higher = longer survival. The procedure, abridged:
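Values are T/C ratios: the measurement in treated animals divided by that in vehicle-treated controls, using survival or tumor size in mice carrying transplantable tumors.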

The mark [1] stands for this setting: dose: 6.25 mg/kg/injection, schedule: Q01DX009 (ip), vehicle: saline with Tween-80.
The mark [2] stands for this setting: dose: 12.5 mg/kg/injection, schedule: Q01DX009 (ip), vehicle: saline with Tween-80.
The mark [3] stands for this setting: dose: 25.0 mg/kg/injection, schedule: Q01DX009 (ip), vehicle: saline with Tween-80.
[4] abbreviates: dose: 50.0 mg/kg/injection, schedule: Q01DX009 (ip), vehicle: saline with Tween-80.
The mark [5] stands for this setting: dose: 100.0 mg/kg/injection, schedule: Q01DX009 (ip), vehicle: saline with Tween-80.
The mark [6] stands for this setting: dose: 200.0 mg/kg/injection, schedule: Q01DX009 (ip), vehicle: saline with Tween-80.
Setting [7] is: dose: 3.12 mg/kg/injection, schedule: Q01DX009 (ip), vehicle: water.
Setting [8] is: dose: 6.25 mg/kg/injection, schedule: Q01DX009 (ip), vehicle: water.

Structures are written as SMILES. Where “and” joins values, the source holds several entries; their conditions need not be identical. Identical values can stand only once. Toxic doses and inconclusive results are not listed.

`COC1=C(OC)C(=O)C(SC/C=C(\C)CCCC(C)CCCC(C)CCCC(C)C)=CC1=O` (centres undefined): the T/C reads like this: under setting [1], 100 % of control; under setting [2], 109 % of control and 94 % of control; under setting [3], 101 % of control and 103 % of control; under setting [4], 121 % of control and 106 % of control; under setting [5], 117 % of control; under setting [6], 116 % of control.
As for `CC(=O)NCCSC(=O)C(=O)SCCNC(C)=O`, the T/C runs as follows: under setting [4], 88 % of control; under setting [5], 102 % of control; under setting [6], 87 % of control.
As to `C=C1C(O)C2(O)OCC34C(CC5C(C)=CC(=O)C(O)C5(C)C23)OC(=O)C(OC(=O)C(C)(O)CC)C14` (centres undefined), the T/C reads like this: (dose: 0.13 mg/kg/injection, schedule: Q01DX009 (ip), vehicle: saline + alcohol) 89 % of control; (dose: 0.25 mg/kg/injection, schedule: Q01DX009 (ip), vehicle: saline + alcohol) 110 % of control and 101 % of control; (dose: 0.5 mg/kg/injection, schedule: Q01DX009 (ip), vehicle: saline + alcohol) 103 % of control; (dose: 1.0 mg/kg/injection, schedule: Q01DX009 (ip), vehicle: saline + alcohol) 115 % of control.
As to `S=C1NCc2cncnc2N1`, the T/C is 108 % of control (dose: 3.12 mg/kg/injection, schedule: Q01DX009 (ip), vehicle: Klucel (hydroxypropylcellulose) (HPC)); 107 % of control (dose: 6.25 mg/kg/injection, schedule: Q01DX009 (ip), vehicle: Klucel (hydroxypropylcellulose) (HPC)); 88 % of control and 102 % of control (dose: 12.5 mg/kg/injection, schedule: Q01DX009 (ip), vehicle: Klucel (hydroxypropylcellulose) (HPC)).
As for `C=Cc1cc(OC)c2c(c1)c(=O)oc1c2cc(OC)c2c(O)ccc(C3OC(C)C(O)C(C)(O)C3O)c21` (centres undefined), the T/C is 120 % of control (dose: 2.5 mg/kg/injection, schedule: Q01DX009 (ip), vehicle: DMSO); 124 % of control and 103 % of control (dose: 5.0 mg/kg/injection, schedule: Q01DX009 (ip), vehicle: DMSO); 158 % of control (dose: 20.0 mg/kg/injection, schedule: Q01DX009 (ip), vehicle: DMSO); 169 % of control and 196 % of control (dose: 40.0 mg/kg/injection, schedule: Q01DX009 (ip), vehicle: DMSO); 207 % of control (dose: 80.0 mg/kg/injection, schedule: Q01DX009 (ip), vehicle: DMSO).
For the molecule `COc1cc2cc(c1Cl)N(C)C(=O)CC(OC(=O)C(C)NC(=O)C(C)C)C1(C)OC1C(C)C1CC(O)(NC(=O)O1)C(OC)/C=C/C=C(C)C2OC` (centres undefined), the T/C is, setting by setting: (dose: 4.0 micrograms/kg/injection, schedule: Q01DX009 (ip), vehicle: distilled water + alcohol) 102 % of control; (dose: 8.0 micrograms/kg/injection, schedule: Q01DX009 (ip), vehicle: distilled water + alcohol) 114 % of control.
For `Oc1ccc(/C=N/N=C/c2ccc(O)c(O)c2)cc1O`, the T/C reads like this: under setting [3], 100 % of control; under setting [4], 102 % of control; under setting [5], 99 % of control; under setting [6], 97 % of control.
Take `CCCCCCCC(=O)O[C@H]1[C@H]2[C@@H](CC1(C)C)C(=O)[C@]13O[C@H]1C(=O)[C@]1(CO1)[C@]23C`: the T/C (dose: 0.31 mg/kg/injection, schedule: Q01DX009 (ip), vehicle: saline with Tween-80) is 98 % of control; the T/C (dose: 0.62 mg/kg/injection, schedule: Q01DX009 (ip), vehicle: saline with Tween-80) was 90 % of control; the T/C (dose: 1.25 mg/kg/injection, schedule: Q01DX009 (ip), vehicle: saline with Tween-80) was 86 % of control and 98 % of control; the T/C (dose: 2.5 mg/kg/injection, schedule: Q01DX009 (ip), vehicle: saline with Tween-80) is 88 % of control.
In the case of `CCSCCNC(=O)[C@@]1(O)[C@H](O)[C@]2(CC)C=CCN3CC[C@@]4(c5cc([C@@]6(OC(C)=O)C[C@H]7C=C(CC)CN(CCc8c6[nH]c6ccccc86)C7)c(OC)cc5N(C)[C@@H]14)[C@@H]32`, the T/C (dose: 0.5 mg/kg/injection, schedule: Q01DX009 (ip), vehicle: water) is 164 % of control.
Turning to `COc1cccc2c1C(=O)c1c(O)c3c(c(O)c1C2=O)CC(O)(/C(C)=N/NC(=O)CCCCC(=O)N/N=C(\C)C1(O)Cc2c(O)c4c(c(O)c2C(OC2CC(N)C(O)C(C)O2)C1)C(=O)c1c(OC)cccc1C4=O)CC3OC1CC(N)C(O)C(C)O1` (centres undefined), the T/C runs as follows: (dose: 1.56 mg/kg/injection, schedule: Q01DX009 (ip), vehicle: water) 191 % of control; under setting [7], 216 % of control; under setting [8], 335 % of control.
With `Cn1c2nc(=O)n(-c3ccccc3)c(=O)c-2nc2c1CCCC2`, the T/C is, setting by setting: (dose: 6.25 mg/kg/injection, schedule: Q01DX008 (ip), vehicle: saline with Tween-80) 96 % of control; under setting [1], 119 % of control; (dose: 12.5 mg/kg/injection, schedule: Q01DX008 (ip), vehicle: saline with Tween-80) 104 % of control; under setting [2], 107 % of control; (dose: 25.0 mg/kg/injection, schedule: Q01DX008 (ip), vehicle: saline with Tween-80) 101 % of control; under setting [3], 107 % of control. Besides, the T/C runs as follows: (dose: 50.0 mg/kg/injection, schedule: Q01DX008 (ip), vehicle: saline with Tween-80) 98 % of control; under setting [4], 101 % of control; under setting [5], 101 % of control and 102 % of control; under setting [6], 96 % of control and 97 % of control.
On to `C[n+]1c(-c2cccc3ccccc23)c2cc(N)ccc2c2ccccc21`, for which the T/C by setting is: (dose: 1.56 mg/kg/injection, schedule: Q01DX009 (ip), vehicle: saline) 117 % of control; (dose: 3.12 mg/kg/injection, schedule: Q01DX009 (ip), vehicle: saline) 122 % of control; (dose: 6.25 mg/kg/injection, schedule: Q01DX009 (ip), vehicle: saline) 119 % of control.
In the case of `N#Cc1ccc(NN=O)nc1`, the T/C was 102 % of control under setting [7]; 119 % of control (dose: 3.13 mg/kg/injection, schedule: Q01DX009 (ip), vehicle: water); 117 % of control (dose: 4.5 mg/kg/injection, schedule: Q01DX009 (ip), vehicle: saline); 113 % of control and 122 % of control under setting [8]; 108 % of control (dose: 7.5 mg/kg/injection, schedule: Q01DX009 (ip), vehicle: saline); 123 % of control (dose: 20.83 mg/kg/injection, schedule: Q01DX009 (ip), vehicle: saline). In addition, the T/C (dose: 34.72 mg/kg/injection, schedule: Q01DX009 (ip), vehicle: saline) is 120 % of control.
Regarding `CC[PH+](CC)CC[S-].CC[PH+](CC)CC[S-].[Au+].[Au+]`, the T/C is, setting by setting: (dose: 5.0 mg/kg/injection, schedule: Q01DX009 (ip), vehicle: Klucel (hydroxypropylcellulose) (HPC)) 94 % of control; (dose: 10.0 mg/kg/injection, schedule: Q01DX009 (ip), vehicle: Klucel (hydroxypropylcellulose) (HPC)) 97 % of control; (dose: 20.0 mg/kg/injection, schedule: Q01DX009 (ip), vehicle: Klucel (hydroxypropylcellulose) (HPC)) 97 % of control; (dose: 40.0 mg/kg/injection, schedule: Q01DX009 (ip), vehicle: Klucel (hydroxypropylcellulose) (HPC)) 95 % of control.
